Results as given in US20160237158A1, “Methods and Compositions for Targeting Tumor Microenvironment and for preventing Metastasis” (INSTITUT NATIONAL DE LA SANTÉ ET DA LA RECHERCHE MÉDICALE …, priority 2013, published 2016).

What was measured:
[1] = system: fibroblasts; assay: Fibroblast contractility (collagen lattices) and pro-invasive activity (organotypic invasion) induced by human tumour cell conditioned media; type: cell-based; set-up: key to Fibroblasts contractile & pro-invasive phenotype: +: induction; −: no induction
Method: (§1) In this assay, hDF or CAFs were cultured during one week in serum-free medium (with either vehicle or cytokines) or CM before embedding in matrix gel. 5×10^5 fibroblasts were embedded in a 1 ml mixture of collagen I and Matrigel18. After the gel was set at 37° C. for 1 h, 5×10^5 SCC12 were plated on top of the gel in complete media. The next day, the gel was lifted onto individual collagen coated nylon discs resting on metal bridges and fed from underneath with daily changes of complete media (with either vehicle or inhibitors), allowing the epithelial layer to grow at an air-liquid interface.
(§2) After 5 days, cultures were fixed (4% paraformaldehyde+0.25% glutaraldehyde in PBS) and processed for haematoxylin and eosin (H&E) staining by standard methods. Invasion assay was measuring the total area of SCC cells and the area of non-invading SCC cells using imageJ software (http://rsbweb.nih.gov/ij/). The value of invasion index shown is the average 1−(non-invading area/total area) of at least ten fields from three or more independent experiments. Error bars are the standard deviation.
(§3) 2.5×10^4 Fibroblasts were embedded in 100 μl of matrix gel (the Collagen-Matrigel mixture used for organotypic invasion assays) and plated into wells of a 96 well plate^57. After 1 h at 37° C., the matrices were overlaid with 100 μl serum-free medium (with either vehicle, cytokines or inhibitors) or CM. Every 2 days, medium was changed and at day 6 the gels were photographed and the respective diameters of the well and gel were measured using ImageJ. The percentage contraction was calculated using the formula 100*(well diameter−gel diameter)/well diameter.
Neutralizing antibody against LIF (AB-250-NA, R&D, Minneapolis, Minn.), IL-6 R (AB-227-NA, R&D) or TGF beta-1,2,3 (MAB1835, R&D) were used at 10 μg/ml otherwise stated. Neutralizing antibody were incubated one hour with conditioned media before being used for matrix remodelling assay and fibroblasts stimulation to neutralize the biological activity of selected cytokines.
Cancer Cells were grown to confluence, washed twice with PBS and then incubated in serum-free medium at 37° C. After 48 hours, conditioned medium was collected, centrifugated at 5000 g for 5 minutes to remove cell debris and the supernatant stored at −80° C. For immunobloting analysis, fibroblasts were stimulated with cancer cells conditioned media for 5 min, otherwise stated, and lysed as described in the immunbloting section. To analyse LIF secretion upon TGFβ-1 stimulation, fibroblasts were stimulated with 2 ng/ml TGF beta-1 for 1, 4, 24 or 48 h in serum-free medium and conditioned media was prepared as below for ELISA analysis.

[2] = system: hDF and hCAF; assay: Matrix remodelling (collagen gel contraction) assay; type: cell-based, human; settings: collagen rich lattices
Method: as §3

[3] = system: SCC12 cells; assay: Organotypic invasion assay; type: cell-based, human
Method: as §1, §2

[4] = system: STAT3; assay: STAT3 phosphorylation in fibroblasts (western blot); type: cell-based, human
Description: (§4) For western blot analysis, antibodies against STAT3 (#9134), pY705-STAT3 (#9145), SMAD2 (#3122), pSer465/467-SMAD2 (#3108), pY1022/1023-JAK1 (#3331), MLC2 (#3672), pThr18/19-MLC2 (#3674) were purchased from Cell Signaling (Cell Signaling Technology, Beverly Mass.), α-tubulin from sigma (T4026, Sigma, Saint Louis, Mo.); JAK1 from Biolegend (#604402, Biolegend, San Diego, Calif.), GP-130 (#sc-655) and RhoA (#sc-418, Santa Cruz Biotechnology, Santa Cruz, Calif.), and alpha-smooth muscle actin (α-SMA) from Abcam (#Ab5694, Abcam, Cambridge, Mass.). For immunofluorescence staining, antibodies against α-SMA and fibronectin were purchased from Sigma (#A2547 and F3648 respectively, Sigma, Saint Louis, Mo.). Chemical inhibitors used: Pyridone 6 (#42009, Calbiochem, Los Angeles, Calif.) was used at […], SB431542 (#1614, Tocris bioscience, Ellisville, Mo.) at 10 μM, Y27632 (#1254, Tocris bioscience, Ellisville, Mo.) and Actinomycin D (#856258, Sigma, Saint Louis, USA) at 5 μg/ml.
(§5) For immunoblotting analysis, cells were lysed on ice in lysis buffer (25 mM Tris (pH 6.8), 2% Sodium dodecyl sulfate (SDS), 5% glycerol, 1% beta-mercaptoethanol, 0.01% bromophenol blue). Equal amounts of protein from each sample were loaded on sodium dodecyl sulfate-polyacrylamide gel electrophoresis, separated, and transferred onto nitrocellulose. The immunoblots were blocked by incubation in 5% bovine serum albumin, 10 mM Tris-HCl (ph7.5), 500 mM NaCl, 0.1% Tween 20 for 30 min at room temperature, probed with specific antibodies and then with secondary antibodies using common classical methods. Immunodetection was performed using chemiluminescent HRP subtrate (#WBKLS0500, Millipore, Billerica, Mass.).

[5] = system: SMAD2; assay: SMAD2 phosphorylation in fibroblasts (western blot); type: cell-based, human; settings: TGFβ1- or LIF-stimulated fibroblasts
Description: as §4
For immunoblotting analysis, cells were lysed on ice in lysis buffer (25 mM Tris (pH 6.8), 2% Sodium dodecyl sulfate (SDS), 5% glycerol, 1% beta-mercaptoethanol, 0.01% bromophenol blue). Equal amounts of protein from each sample were loaded on sodium dodecyl sulfate-polyacrylamide gel electrophoresis, separated, and transferred onto nitrocellulose. […]

[6] = system: mouse dermal fibroblasts; assay: TGFβ1-stimulated mouse dermal fibroblasts: STAT3 phosphorylation and collagen gel contraction; type: cell-based
Method: as §3, §5

[7] = system: hDF; assay: Collagen fibre assembly in 3D-organotypic cultures (Sirius Red); type: cell-based, human; settings: hDF stimulated by either TGFβ1 or LIF
Method: After embedding in paraffin, tissue sections from organotypic culture, skin from human breast and foreskin, and human skin carcinomas were prepared on slides using standard methods. Collagen assembly was evaluated by Sirius Red staining. Briefly, sections were first incubated with Weigert's iron hematoxylin (#C0231, Diapath, Martinengo, Italy) for 8 minutes and washed in distilled water for 10 minutes. Sections were next incubated with 1% Sirius Red in saturated picric acid for 1 hour. The slides were then washed twice with 0.5% acetic acid in distilled H2O, dehydrated and mounted using classical procedures. Sections were analysed using polarized light imaging and confocal laser microscopy with a LSM 5 EXCITER confocal microscope (Carl Zeiss, Germany). Collagen fibres thickness and length were quantified using ImageJ software.

With N#CCC(C1CCCC1)n1cc(-c2ncnc3[nH]ccc23)cn1 (centres unmarked) [Ruxolitinib, 3-Cyclopentyl-3-[4-(7H-pyrrolo[2,3-d]pyrimidin-4-yl)-1H-pyrazol-1-yl]propanenitrile] the “Fibroblasts contractile & pro-invasive phenotype” value ([1]; A375M2 CM (h. melanoma), antibodies 10 μg·ml−1, αLIF (50)) was “−”, the “Fibroblasts contractile & pro-invasive phenotype” value ([1]; A375P CM (h. melanoma), antibodies 10 μg·ml−1) was “−” and the “Fibroblasts contractile & pro-invasive phenotype” value ([1]; A549 CM (h. lung carcinoma), antibodies 10 μg·ml−1) was “−”. The “Fibroblasts contractile & pro-invasive phenotype” value ([1]; CAL27 CM (human OSCC), antibodies 10 μg·ml−1, αLIF (50)) was “−”, the “Fibroblasts contractile & pro-invasive phenotype” value ([1]; CAL33 CM (human OSCC), antibodies 10 μg·ml−1) was “−” and the “Fibroblasts contractile & pro-invasive phenotype” value ([1]; CAL33_LIF CM (h. engineered cell line), antibodies 10 μg·ml−1, αLIF (50)) was “−”. For the same compound, the “Fibroblasts contractile & pro-invasive phenotype” value ([1]; CAL33_mock CM (h. engineered cell line), antibodies 10 μg·ml−1) was “−”, the “Fibroblasts contractile & pro-invasive phenotype” value ([1]; CAL60 CM (human OSCC), antibodies 10 μg·ml−1) was “−” and the “Fibroblasts contractile & pro-invasive phenotype” value ([1]; CAL166 CM (human OSCC), antibodies 10 μg·ml−1) was “−”. For the same compound, the “Fibroblasts contractile & pro-invasive phenotype” value ([1]; Detroit562 CM (human OSCC), antibodies 10 μg·ml−1) was “−”, the “Fibroblasts contractile & pro-invasive phenotype” value ([1]; LS174 CM (h. colon carcinoma), antibodies 10 μg·ml−1) was “−” and the “Fibroblasts contractile & pro-invasive phenotype” value ([1]; MDA-MB-231 CM (breast carcinoma), antibodies 10 μg·ml−1) was “−”. The “Fibroblasts contractile & pro-invasive phenotype” value ([1]; MDA-MB-468 CM (breast carcinoma), antibodies 10 μg·ml−1) was “−”, the “Fibroblasts contractile & pro-invasive phenotype” value ([1]; Mel501 CM (h. melanoma), antibodies 10 μg·ml−1) was “−” and the “Fibroblasts contractile & pro-invasive phenotype” value ([1]; Mel1205 CM (h. melanoma), antibodies 10 μg·ml−1) was “−”. For the same compound, the “Fibroblasts contractile & pro-invasive phenotype” value ([1]; SCC12 CM (human OSCC), antibodies 10 μg·ml−1) was “−”, the “Fibroblasts contractile & pro-invasive phenotype” value ([1]; SCC13 CM (human OSCC), antibodies 10 μg·ml−1) was “−” and the “Fibroblasts contractile & pro-invasive phenotype” value ([1]; SCC25 CM (human OSCC), antibodies 10 μg·ml−1) was “−”. The “Fibroblasts contractile & pro-invasive phenotype” value ([1]; Sbcl2 CM (h. melanoma), antibodies 10 μg·ml−1) was “−”, the “Fibroblasts contractile & pro-invasive phenotype” value ([1]; WM35 CM (h. melanoma), antibodies 10 μg·ml−1) was “−” and the “Fibroblasts contractile & pro-invasive phenotype” value ([1]; WM278 CM (h. melanoma), antibodies 10 μg·ml−1) was “−”. For the same compound, the “Fibroblasts contractile & pro-invasive phenotype” value ([1]; WM793 CM (h. melanoma), antibodies 10 μg·ml−1) was “−”, the “Fibroblasts contractile & pro-invasive phenotype” value ([1]; hPK CM, antibodies 10 μg·ml−1) was “−” and the “TGFβ1 and LIF-dependent activation of hDF contractility” value [2] was “completely inhibited”. For the same compound, the “track formation and SCC12 cell invasion promoted by hCAF” value ([3]; hCAF) was “prevented”, the “pro-invasive hDF activation induced upon TGFβ1 and LIF stimulation” value ([3]; hDF, TGFβ1 and LIF stimulation) was “abrogated” and the STAT3 phosphorylation ([4]; TGFβ1- or LIF-stimulated fibroblasts) was “repressing”. The “CAF endogenous STAT3 activity” value ([4]; hCAF) was “inhibition”, the “effect on SMAD2” value [5] was “no effect” and the STAT3 phosphorylation [6] was “complete abrogation”. For the same compound, the matrix remodelling [6] was “complete abrogation” and the “capacity to assembly polarized collagen fibres” value [7] was “inhibited”.
